Data on 30 compounds can be found in PubChem BioAssay (NCI).

Structures are written as SMILES.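 1) Cells in 96-well plates. 2) Compound, 48 h, 5 concentrations. 3) Linear interpolation between surrounding doses. 4) Unreached endpoint = highest concentration. Abbreviation: GI50, concentration required for 50% inhibition of growth. At the TGI there is no net growth.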 A value given as a limit tells only on which side of the number the result lay.

For one experiment, the system named is HT29 colon. As to the kind of experiment: NCI tumour cell line growth inhibition, 48 h.
As for `CC(=O)/C(=C/n1c(=S)sc2ccccc21)C(=O)Nc1ccccc1C`, the TGI is > 100 µM.
Still for that read-out and setting: the value for `Cc1ccc(C(=O)Nc2ccc(CP(=O)(O)O)cc2)cc1NC(=O)c1cccc(NC(=O)Nc2cccc(C(=O)Nc3cc(C(=O)Nc4ccc(CP(=O)(O)O)cc4)ccc3C)c2)c1` was > 100 µM.
The same measure, in the same setting: the value for `O=C(CCc1ccc(O)cc1)c1c(O)cc(O)cc1OC1OC(CO)C(O)C(O)C1O` (stereo not given) was > 100 µM.
On the same count and under the same terms, the value for `CC(C)=CC1C(C(=O)O)C1(C)C` (stereo not given) was > 750 µM; that for `CCOC(=O)C1CC(O)C(=O)N1C` (stereo not given) was > 100 µM; that for `COc1cccc(C2c3cc4c(cc3OC(N3CCCC3)C2C)OCO4)c1OC` (stereo not given) was 11.3 µM.
As for `CC(=O)CC(=O)c1cc2c(=O)oc(C)cc2oc1=O`, the TGI was > 37.5 µM.
On to `OCc1ccccc1C1CSCSC1`, for which the TGI was > 100 µM.

Another experiment relates to A549 NSCLC. As to the kind of experiment: NCI tumour cell line growth inhibition, 48 h.
For `C=CCCCC12CCCc3cccc(c31)NC2=O` (stereo not given), the TGI was 51.2 µM.
In turn, `C[C@@H]1C[C@H](O)[C@]2(O)O[C@@H]3C[C@@]4(C=O)[C@@H](CC=C5[C@@H]4CC[C@]4(C)[C@@H](C6=CC(=O)OC6)CC[C@]54O)C[C@H]3O[C@@H]2O1` had a TGI of 0.097 µM.
The same measure, in the same setting: in the case of `Cc1nc2cc(C(F)(F)F)ccc2[nH]c1=O` it was > 100 µM.
On to `N#CSCc1cccc(Nc2cc(=O)[nH]c(=O)[nH]2)c1`, for which the TGI was > 100 µM.
The same measure, in the same setting: in the case of `O=C1C(Cl)N(c2ccccc2)C1c1c[nH]c2ccccc12` (stereo not given) it was > 100 µM; in that of `CC(C)/C(Cl)=N\OC(=O)NNc1ccccc1`, > 100 µM.
Still for that read-out and setting: the value for `Cc1nc2nnc(C)n2c2c1C(=O)Nc1ccccc1N2` was > 100 µM; that for `O=C(OCc1ccccc1)OOC(=O)OCc1ccccc1` was > 100 µM.
Same read-out and setting: the value for `CN(C)c1ccc(/C(Br)=C2\OC(=O)c3ccccc32)cc1` was > 100 µM; that for `O=C1OC[C@@H]2Cc3c([nH]c4ccccc34)[C@@H](c3ccc(O)cc3)N12` was 75.8 µM; that for `Nc1ncnc2c1ncn2C(=O)NC12CC3CC(CC(C3)C1)C2` was > 100 µM.
Regarding `CC1=C2c3ccccc3N(C(=O)/C=C/C(=O)O)[C@H]2[C@H]2C(=O)OC(=O)[C@H]2C1`, the TGI was > 10 µM.
Same read-out and setting: in the case of `CC(C)(CO)N1C(=O)c2ccccc2C1(O)c1ccc(Cl)cc1` (stereo not given) it was > 100 µM.
On the same count and under the same terms, the value for `Cc1cc2cccc(Cl)c2nc1C(=O)c1ccccc1` was > 100 µM; that for `CN1CN(c2ccccc2)C2(CCN(CCCC3(c4cccs4)OCCO3)CC2)C1=O` was > 100 µM.
Consider `COc1cc([C@@H]2c3cc4c(cc3C[C@H]3COC(=O)[C@@H]32)OCO4)cc(OC)c1OC`, for which the GI50 is 0.00375 µM and the TGI is > 50 µM.
`Cc1nc2ccc([N+](=O)[O-])cc2c(=O)n1C(=S)Nc1cccc(Cl)c1` displayed a TGI of 92 µM.
Turning to `COc1cccc(-c2nc(-c3cnccn3)n(Cc3ccccc3)n2)c1`, the TGI was > 100 µM.
As for `CC(=O)Nc1ccc(Cl)c(Cl)c1`, the TGI was > 100 µM.
Still for that read-out and setting: the value for `O=C(/C=C/c1cccs1)c1ccc(Cl)cc1` was > 100 µM; that for `N#Cc1c(OCCF)c2ccccc2n2c1nc1ccccc12` was > 100 µM.
Same read-out and setting: the value for `CC(=O)/C(=C/n1c(=S)sc2ccccc21)C(=O)Nc1ccccc1C` was > 100 µM; that for `Cc1ccc(C(=O)Nc2ccc(CP(=O)(O)O)cc2)cc1NC(=O)c1cccc(NC(=O)Nc2cccc(C(=O)Nc3cc(C(=O)Nc4ccc(CP(=O)(O)O)cc4)ccc3C)c2)c1` was > 100 µM; that for `O=C(CCc1ccc(O)cc1)c1c(O)cc(O)cc1OC1OC(CO)C(O)C(O)C1O` (stereo not given) was > 100 µM.
On the same count and under the same terms, the value for `CC(C)=CC1C(C(=O)O)C1(C)C` (stereo not given) was > 750 µM; that for `CCOC(=O)C1CC(O)C(=O)N1C` (stereo not given) was > 100 µM; that for `COc1cccc(C2c3cc4c(cc3OC(N3CCCC3)C2C)OCO4)c1OC` (stereo not given) was 25.5 µM.
Consider `c1ccc(N=c2snc(-c3ccccc3)s2)cc1`, for which the TGI is > 100 µM.
Still for that read-out and setting: the value for `CC(=O)CC(=O)c1cc2c(=O)oc(C)cc2oc1=O` was > 37.5 µM; that for `OCc1ccccc1C1CSCSC1` was > 100 µM.

In the next experiment the test system is IGROV1 ovarian. As to the kind of experiment: NCI tumour cell line growth inhibition, 48 h.
`C=CCCCC12CCCc3cccc(c31)NC2=O` (stereo not given) had a TGI of 33.8 µM.
Still for that read-out and setting: the value for `N#CSCc1cccc(Nc2cc(=O)[nH]c(=O)[nH]2)c1` was > 100 µM; that for `O=C1C(Cl)N(c2ccccc2)C1c1c[nH]c2ccccc12` (stereo not given) was > 100 µM.
As for `CC(C)/C(Cl)=N\OC(=O)NNc1ccccc1`, the TGI is > 100 µM.
Same read-out and setting: in the case of `Cc1nc2nnc(C)n2c2c1C(=O)Nc1ccccc1N2` it was > 100 µM; in that of `O=C(OCc1ccccc1)OOC(=O)OCc1ccccc1`, > 100 µM.
Same read-out and setting: in the case of `CN(C)c1ccc(/C(Br)=C2\OC(=O)c3ccccc32)cc1` it was > 100 µM.
`O=C1OC[C@@H]2Cc3c([nH]c4ccccc34)[C@@H](c3ccc(O)cc3)N12` came in with a TGI of 61.1 µM.
On the same count and under the same terms, in the case of `CC1=C2c3ccccc3N(C(=O)/C=C/C(=O)O)[C@H]2[C@H]2C(=O)OC(=O)[C@H]2C1` it was > 10 µM.
With `CC(C)(CO)N1C(=O)c2ccccc2C1(O)c1ccc(Cl)cc1` (stereo not given), the TGI was > 100 µM.
Still for that read-out and setting: the value for `Cc1cc2cccc(Cl)c2nc1C(=O)c1ccccc1` was > 100 µM; that for `CN1CN(c2ccccc2)C2(CCN(CCCC3(c4cccs4)OCCO3)CC2)C1=O` was > 100 µM.
Take `COc1cc([C@@H]2c3cc4c(cc3C[C@H]3COC(=O)[C@@H]32)OCO4)cc(OC)c1OC`: the GI50 was 0.00618 µM and the TGI is > 50 µM.
`COc1cccc(-c2nc(-c3cnccn3)n(Cc3ccccc3)n2)c1`: the TGI was > 100 µM.
Still for that read-out and setting: the value for `CC(=O)Nc1ccc(Cl)c(Cl)c1` was > 100 µM; that for `O=C(/C=C/c1cccs1)c1ccc(Cl)cc1` was > 100 µM; that for `N#Cc1c(OCCF)c2ccccc2n2c1nc1ccccc12` was > 100 µM.
As to `CC(=O)/C(=C/n1c(=S)sc2ccccc21)C(=O)Nc1ccccc1C`, the TGI was > 100 µM.
On the same count and under the same terms, the value for `Cc1ccc(C(=O)Nc2ccc(CP(=O)(O)O)cc2)cc1NC(=O)c1cccc(NC(=O)Nc2cccc(C(=O)Nc3cc(C(=O)Nc4ccc(CP(=O)(O)O)cc4)ccc3C)c2)c1` was > 100 µM.
Same read-out and setting: in the case of `O=C(CCc1ccc(O)cc1)c1c(O)cc(O)cc1OC1OC(CO)C(O)C(O)C1O` (stereo not given) it was > 100 µM.
Turning to `CC(C)=CC1C(C(=O)O)C1(C)C` (stereo not given), the TGI was > 750 µM.
Still for that read-out and setting: the value for `CCOC(=O)C1CC(O)C(=O)N1C` (stereo not given) was > 100 µM; that for `COc1cccc(C2c3cc4c(cc3OC(N3CCCC3)C2C)OCO4)c1OC` (stereo not given) was 16.6 µM; that for `c1ccc(N=c2snc(-c3ccccc3)s2)cc1` was > 100 µM.
Still for that read-out and setting: the value for `CC(=O)CC(=O)c1cc2c(=O)oc(C)cc2oc1=O` was > 37.5 µM.
